Experiments:
HT-29 = assay: Cytotoxicity of compound was measured for the growth inhibition of HT-29 human colon carcinoma cell line; type: functional, cell-based
A-431 = assay: Cytotoxicity measured for the growth inhibition of A-431 Human epidermoid carcinoma cell line; type: functional, cell-based
[1] = molecular target: Growth factor receptor-bound protein 2 (Homo sapiens) (UniProt P62993); assay: Compound was evaluated for the inhibitory activity against Growth factor receptor bound protein 2 SH2 at a concentration of 100 uM
Chain of Growth factor receptor-bound protein 2 (Homo sapiens) (P62993 whole entry, looked up): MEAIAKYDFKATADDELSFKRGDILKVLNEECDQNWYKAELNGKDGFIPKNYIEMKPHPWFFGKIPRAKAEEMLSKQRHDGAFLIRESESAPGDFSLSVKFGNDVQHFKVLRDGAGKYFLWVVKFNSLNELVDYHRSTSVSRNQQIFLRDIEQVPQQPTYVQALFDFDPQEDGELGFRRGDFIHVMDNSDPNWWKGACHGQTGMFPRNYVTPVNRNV

| Structure (SMILES) | IC50 (HT-29) [µM] | IC50 (A-431) [µM] | inhibition [1] [%] |
| --- | --- | --- | --- |
| C=CCO[C@@H]1[C@H](O)[C@H](Oc2ccc(I)cc2)O[C@@H](COCc2ccc(OC)cc2)[C@H]1O | 19.7 | 10.6 |  |
| C=CCO[C@H]1[C@H](O)[C@H](COS(=O)(=O)c2cccc(C(F)(F)F)c2)O[C@@H](Oc2ccc(I)cc2)[C@H]1OC(C)=O | 23.1 | 6.1 |  |
| CCCO[C@H]1[C@H](O)[C@H](COS(=O)(=O)c2ccc3ccccc3c2)O[C@@H](Oc2ccc(OP(=O)(O)O)cc2)[C@H]1OC(C)=O [GLYCOMER] | > 50 | > 50 |  |
| C=CCO[C@@H]1[C@H](O)[C@H](Oc2ccc(I)cc2)O[C@@H](COC(=O)c2ccc(Cl)cc2)[C@H]1O | 25.2 | 20.5 |  |
| C=CCO[C@@H]1[C@H](O)[C@H](Oc2ccc(I)cc2)O[C@@H](COC(=O)c2ccccc2)[C@H]1O | > 50 | > 50 |  |
| CCCO[C@H]1[C@H](O)[C@H](COS(=O)(=O)c2cccc(C(F)(F)F)c2)O[C@@H](Oc2ccc(OP(=O)(O)O)cc2)[C@H]1OC(C)=O [GLYCOMER] | 35.5 | 38.8 |  |
| C=CCO[C@H]1[C@H](O)[C@H](COS(=O)(=O)c2cccs2)O[C@@H](Oc2ccc(I)cc2)[C@H]1OC(C)=O |  | 12.8 | 30 |
| C=CCO[C@@H]1[C@H](O)[C@H](Oc2ccc(I)cc2)O[C@@H](COC(=O)c2ccc(OC)cc2)[C@H]1O | 55.1 | 24.6 |  |
| C=CCO[C@@H]1[C@H](O)[C@H](Oc2ccc(I)cc2)O[C@@H](COS(=O)(=O)c2ccc3ccccc3c2)[C@H]1O |  | 8.81 |  |
| O=C(Nc1ccccc1)OCCO[C@@H]1[C@H](O)[C@H](Oc2ccc(I)cc2)O[C@@H](COS(=O)(=O)c2ccc3ccccc3c2)[C@H]1O | 3.67 | 5.1 |  |
| C=CCO[C@@H]1[C@H](O)[C@H](Oc2ccc(I)cc2)O[C@@H](COS(=O)(=O)c2cccc(C(F)(F)F)c2)[C@H]1O | 35.5 | 36.8 |  |
| C=CCO[C@H]1[C@H](O)[C@H](COS(=O)(=O)c2cccc(C(F)(F)F)c2)O[C@@H](Oc2ccc(I)cc2)[C@H]1OC(=O)CC | 4.65 | 2.17 |  |
| C=CCO[C@H]1[C@H](O)[C@H](COS(=O)(=O)c2ccc3ccccc3c2)O[C@@H](Oc2ccc(I)cc2)[C@H]1OC(C)=O | 11.6 | 5.2 |  |
| C=CCO[C@H]1[C@H](O)[C@H](COS(=O)(=O)c2ccc(Cl)cc2)O[C@@H](Oc2ccc(I)cc2)[C@H]1OC(C)=O |  | 9.77 |  |
| O=C(CCc1ccccc1)O[C@@H]1[C@H](Oc2ccc(I)cc2)O[C@@H](COS(=O)(=O)c2cccc(C(F)(F)F)c2)[C@@H](O)[C@@H]1OCCOC(=O)Nc1ccccc1 | 7.15 | 4.52 | 30 |
| NC(=O)OCCO[C@@H]1[C@H](O)[C@H](Oc2ccc(I)cc2)O[C@@H](COS(=O)(=O)c2ccc3ccccc3c2)[C@H]1O | 23.1 | 9.1 |  |
| C=CCO[C@H]1[C@H](O)[C@H](COS(=O)(=O)c2cccc(C(F)(F)F)c2)O[C@@H](Oc2ccc(I)cc2)[C@H]1OC(=O)Cc1ccccc1 | 4.95 | 5.15 |  |
| C=CCO[C@@H]1[C@H](O)[C@H](Oc2ccc(I)cc2)O[C@@H](COC(=O)c2ccc3ccccc3c2)[C@H]1O | > 50 | > 50 |  |
| C=CCO[C@H]1[C@H](O)[C@H](COS(=O)(=O)c2cccc(C(F)(F)F)c2)O[C@@H](Oc2ccc(I)cc2)[C@H]1OC(=O)CCc1ccccc1 | 3 | 2 |  |
| C=CCO[C@H]1[C@@H](O)[C@H](COS(=O)(=O)c2cccc(C(F)(F)F)c2)O[C@@H](Oc2ccc(I)cc2)[C@H]1OC(=O)C(C)C | 4.2 | 3.3 | 30 |
| C=CCO[C@H]1[C@H](O)[C@H](COS(=O)(=O)c2cccc(C(F)(F)F)c2)O[C@@H](Oc2ccc(I)cc2)[C@H]1OC(=O)c1ccccc1 | 7.5 | 7 |  |
| C=CCO[C@H]1[C@H](O)[C@H](COS(=O)(=O)c2cccc(C(F)(F)F)c2)O[C@H](Oc2ccc(I)cc2)[C@@H]1OC(=O)CCC | 4 | 2.6 |  |

Source: ChEMBL document CHEMBL1133405, “Design and synthesis of functionalized glycomers as non-peptidic ligands for SH2 binding and as inhibitors of A-431 human epidermoid and HT-29 colon carcinoma cell lines” (Bioorg Med Chem Lett, 2000)
